SMILES strings stand for the structures.

One test has as its target T1, IKKε (Homo sapiens, UniProt Q14164).
T1 construct: His-tag; made in house; host or cells: Sf9 insect cells
T1 sequence (Q14164 1-716): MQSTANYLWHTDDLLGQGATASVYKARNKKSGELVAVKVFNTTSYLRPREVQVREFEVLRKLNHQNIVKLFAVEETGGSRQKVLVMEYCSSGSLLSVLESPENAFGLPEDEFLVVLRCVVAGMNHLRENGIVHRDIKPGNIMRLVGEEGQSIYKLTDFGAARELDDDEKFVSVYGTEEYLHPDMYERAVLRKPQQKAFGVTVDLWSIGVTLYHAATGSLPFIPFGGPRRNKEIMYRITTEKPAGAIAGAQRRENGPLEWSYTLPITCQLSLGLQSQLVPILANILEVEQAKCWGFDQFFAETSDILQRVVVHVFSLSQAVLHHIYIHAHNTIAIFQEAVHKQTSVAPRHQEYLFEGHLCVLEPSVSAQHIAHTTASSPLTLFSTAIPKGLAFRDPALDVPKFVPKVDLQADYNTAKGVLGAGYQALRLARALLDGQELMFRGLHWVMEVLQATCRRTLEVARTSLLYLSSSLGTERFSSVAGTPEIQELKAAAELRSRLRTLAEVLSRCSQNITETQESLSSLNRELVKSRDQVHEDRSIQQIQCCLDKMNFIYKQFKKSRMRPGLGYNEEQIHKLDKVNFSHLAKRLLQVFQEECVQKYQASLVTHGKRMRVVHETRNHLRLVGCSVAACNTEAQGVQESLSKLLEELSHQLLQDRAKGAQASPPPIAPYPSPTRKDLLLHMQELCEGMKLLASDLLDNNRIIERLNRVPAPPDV
As to the kind of experiment: In-vitro IKKε kinase assay ([γ33]ATP filter-plate). It is filed as biochemical. The note with it: text bins; read-out: IC50 for inhibition of the kinase activity of IKKε. Put shortly: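 His-tagged Sf9-expressed kinases at 0.1 or 0.02 μg/ml (TBK1) and 0.1 or 0.015 μg/ml (IKKε) for normal and sensitized formats, with myelin basic protein or casein substrate. ATP was at 2×Km (60 μM TBK1, 32 μM IKKε) plus 0.3 μCi [γ33]ATP. Reactions ran 30-45 min, were captured on P-81 filters, and counts were normalized to DMSO.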

The target in another test is T2, TBK1 (Homo sapiens, UniProt Q9UHD2).
T2 construct: His-tag; made in house; host or cells: Sf9 insect cells
T2 sequence (Q9UHD2 1-729): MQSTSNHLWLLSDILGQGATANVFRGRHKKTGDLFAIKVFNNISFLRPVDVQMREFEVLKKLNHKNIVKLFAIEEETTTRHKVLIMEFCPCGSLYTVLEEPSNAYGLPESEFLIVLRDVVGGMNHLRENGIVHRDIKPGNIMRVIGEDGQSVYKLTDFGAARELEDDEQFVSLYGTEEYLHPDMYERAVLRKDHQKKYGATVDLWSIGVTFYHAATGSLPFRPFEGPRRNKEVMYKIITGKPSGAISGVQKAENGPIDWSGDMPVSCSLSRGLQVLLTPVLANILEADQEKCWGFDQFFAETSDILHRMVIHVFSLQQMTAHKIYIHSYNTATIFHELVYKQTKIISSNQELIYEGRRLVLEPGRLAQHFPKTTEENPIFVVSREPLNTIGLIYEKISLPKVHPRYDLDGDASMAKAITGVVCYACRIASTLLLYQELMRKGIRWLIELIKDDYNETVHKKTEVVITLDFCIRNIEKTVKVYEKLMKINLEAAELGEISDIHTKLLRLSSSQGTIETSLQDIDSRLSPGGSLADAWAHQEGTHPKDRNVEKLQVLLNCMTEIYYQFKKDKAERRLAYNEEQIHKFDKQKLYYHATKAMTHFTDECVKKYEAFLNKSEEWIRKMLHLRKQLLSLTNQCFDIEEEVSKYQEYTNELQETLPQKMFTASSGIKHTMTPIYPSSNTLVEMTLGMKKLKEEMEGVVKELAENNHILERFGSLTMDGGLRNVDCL
In words: In-vitro TBK1 kinase assay ([γ33]ATP filter-plate). It is filed as biochemical. The note with it: text bins; read-out: IC50 for inhibition of the kinase activity of TBK1. The protocol: IKKε enzyme was produced as a His-tag fusion in Sf9 cells and used at a final concentration of […]. TBK1 enzyme was produced as a His-tag fusion in Sf9 cells and used at a final concentration of 0.1 μg/ml. Kinase reactions were carried out in reaction buffer using myelin basic protein (Millipore, Ballerica, Mass.) or casein (Sigma, St. Louis, Mo.) as substrate at an ATP concentration equal to twice the Km,ATP value for each enzyme, corresponding to 32 μM ATP for IKKε and 60 μM ATP for TBK1, in the presence of 0.3 μCi [γ^33]ATP (PerkinElmer, Waltham, Mass.). Final enzyme concentrations were 0.1 or 0.015 μg/ml (IKKε) and 0.1 or 0.02 μg/ml (TBK1), representing “normal” and “sensitized” assay conditions respectively. Test compounds (or DMSO solvent as a control) were added prior to initiation of the reactions. Reactions were terminated after 30-45 minutes by adding 3% phosphoric acid. Terminated reactions were transferred to P-81 cellulose phosphate filterplates (Whatman, Inc., Piscataway, N.J.) and washed with 1% phosphoric acid on a vacuum apparatus. After air drying, scintillant (PerkinElmer, Waltham, Mass.) was added and the plates were read on a PerkinElmer TopCount NXT instrument. Counts were normalized to DMSO controls after background subtraction.

As for `CC(C)CC(=O)Nc1ccc(-c2ccnc(Nc3ccc(N4CCOCC4)cc3)n2)cc1C#N` [Example 1, N-[2-cyano-4-(2-{[4-(morpholin-4-yl)phenyl]amino}pyrimidin-4-yl)phenyl]-3-methylbutanamide], the values for the IC50 on IKKε and on TBK1 were 5 to 50 nM and below 10 nM, respectively.

Regarding `C[C@H](O)C(=O)N1CCC(Oc2ccc(-c3ccnc(Nc4ccc(C(=O)NCCCN(C)C)cc4)n3)cc2C#N)CC1` [Example 4, 4-({4-[3-cyano-4-({1-[(2S)-2-hydroxypropanoyl]piperidin-4-yl}oxy)phenyl]pyrimidin-2-yl}amino)-N-[3-(dimethylamino)propyl]benzamide], the IC50 – broadly, the concentration that gives 50% inhibition – is below 5 nM at IKKε and below 10 nM at TBK1.

As for `C[C@H](O)C(=O)N1CCC(Oc2ccc(-c3ccnc(Nc4ccc(N5CCOCC5)cc4)n3)cc2C#N)CC1` [Example 6, 2-({1-[(2S)-2-Hydroxypropanoyl]piperidin-4-yl}oxy)-5-(2-{[4-(morpholin-4-yl)phenyl]amino}pyrimidin-4-yl)benzonitrile], the half-inhibitory concentration (IC50) at IKKε was below 5 nM; at TBK1, below 10 nM.

`N#Cc1cc(-c2ccnc(Nc3ccc(NC(=O)NCCO)cc3)n2)ccc1OC1CCOCC1` [Example 11, 1-[4-({4-[3-cyano-4-(tetrahydro-2H-pyran-4-yloxy)phenyl]pyrimidin-2-yl}amino)phenyl]-3-(2-hydroxyethyl)urea]: the IC50 at IKKε was below 5 nM; at TBK1 it was below 10 nM.

`N#Cc1cc(-c2ccnc(Nc3ccccc3)n2)ccc1OC1CCOCC1` [Example 12]: the values for the IC50 at IKKε and on TBK1 were 5 to 50 nM and 10 to 100 nM, respectively.

`N#Cc1cc(-c2ccnc(Nc3ccc(NC(=O)N4CCOCC4)cc3)n2)ccc1OC1CCOCC1` [Example 13, N-[4-({4-[3-cyano-4-(tetrahydro-2H-pyran-4-yloxy)phenyl]pyrimidin-2-yl}amino)phenyl] morpholin-4-carboxamide]: the results for the IC50 on IKKε and at TBK1 were 5 to 50 nM and below 10 nM, respectively.

For the compound `N#Cc1cc(-c2ccnc(Nc3ccc(NC(=O)Nc4cccnc4)cc3)n2)ccc1OC1CCOCC1` [Example 14, 1-[4-({4-[3-cyano-4-(tetrahydro-2H-pyran-4-yloxy)phenyl]pyrimidin-2-yl}amino)phenyl]-3-pyridin-3-ylurea], the 50% inhibitory concentration (IC50) on IKKε was below 5 nM; on TBK1, below 10 nM.

Consider `N#Cc1cc(-c2ccnc(Nc3ccc4scnc4c3)n2)ccc1OC1CCOCC1` [Example 15, 5-[2-(1,3-benzothiazol-5-ylamino)pyrimidin-4-yl]-2-(tetrahydro-2H-pyran-4-yloxy)benzonitrile], for which the IC50 on IKKε was below 5 nM; on TBK1 it was below 10 nM.

Turning to `N#Cc1cc(-c2ccnc(Nc3ccc4ncsc4c3)n2)ccc1OC1CCOCC1` [Example 16, 5-[2-(1,3-benzothiazol-6-ylamino)pyrimidin-4-yl]-2-(tetrahydro-2H-pyran-4-yloxy)benzonitrile], the figures for the IC50 at IKKε and at TBK1 were below 5 nM and below 10 nM, respectively.

For `N#Cc1cc(-c2ccnc(Nc3ccc(NC(=O)Nc4ccncc4)cc3)n2)ccc1OC1CCOCC1` [Example 17, 1-[4-({4-[3-cyano-4-(tetrahydro-2H-pyran-4-yloxy)phenyl]pyrimidin-2-yl}amino)phenyl]-3-pyridin-4-ylurea], the half-maximal inhibitory concentration (IC50) on IKKε fell in the range of 5 to 50 nM; at TBK1, 10 to 100 nM.

In the case of `CC(=O)N1CCN(C(=O)Nc2ccc(Nc3nccc(-c4ccc(OC5CCOCC5)c(C#N)c4)n3)cc2)CC1` [Example 19, 4-acetyl-N-[4-({4-[3-cyano-4-(tetrahydro-2H-pyran-4-yloxy)phenyl]pyrimidin-2-yl}amino)phenyl] piperazine-1-carboxamide], the IC50 is 5 to 50 nM on IKKε and below 10 nM at TBK1.

Turning to `N#Cc1cc(-c2ccnc(Nc3ccc4c(c3)OCO4)n2)ccc1OC1CCOCC1` [Example 23, 5-[2-(1,3-benzodioxol-5-ylamino)pyrimidin-4-yl]-2-(tetrahydro-2H-pyran-4-yloxy)benzonitrile], the IC50 is 5 to 50 nM on IKKε and below 10 nM on TBK1.

`N#Cc1cc(-c2ccnc(Nc3ccc(N4CCOCC4)c(F)c3)n2)ccc1OC1CCOCC1` [Example 24, 5-(2-{[3-fluoro-4-(morpholin-4-yl)phenyl]amino}pyrimidin-4-yl)-2-(tetrahydro-2H-pyran-4-yloxy)benzonitrile]: the concentration for half-maximal inhibition (IC50) on IKKε is below 5 nM; at TBK1 it was below 10 nM.

In the case of `COc1cc(Nc2nccc(-c3ccc(OC4CCOCC4)c(C#N)c3)n2)ccc1OCCOCCNS(=O)(=O)N(C)C` [Example 26, N′-(2-{2-[4-({4-[3-cyano-4-(tetrahydro-2H-pyran-4-yloxy)phenyl]pyrimidin-2-yl}amino)-2-methoxyphenoxy]ethoxy}ethyl)-N,N-dimethylsulfuric diamide], the results for the concentration for half-maximal inhibition (IC50) on IKKε and on TBK1 were below 5 nM and below 10 nM, respectively.

Consider `COc1cc(Nc2nccc(-c3ccc(OC4CCOCC4)c(C#N)c3)n2)ccc1OCCCS(=O)(=O)N1CCOCC1` [Example 28, 5-[2-({3-methoxy-4-[3-(morpholin-4-ylsulfonyl)propoxy]phenyl}amino)pyrimidin-4-yl]-2-(tetrahydro-2H-pyran-4-yloxy)benzonitrile], for which the figures for the half-inhibitory concentration (IC50) on IKKε and on TBK1 were below 5 nM and below 10 nM, respectively.

Turning to `COc1cc(Nc2nccc(-c3ccc(OC4CCOCC4)c(C#N)c3)n2)ccc1OCCOCCNS(=O)(=O)N1CCOCC1` [Example 29, N-(2-{2-[4-({4-[3-cyano-4-(tetrahydro-2H-pyran-4-yloxy)phenyl]pyrimidin-2-yl}amino)-2-methoxyphenoxy]ethoxy}ethyl) morpholine-4-sulfonamide], the values for the concentration for half-maximal inhibition (IC50) on IKKε and on TBK1 were below 5 nM and below 10 nM, respectively.

For the compound `COc1cc(Nc2nccc(-c3ccc(OC(C)C)c(C#N)c3)n2)cc(OC)c1OC` [Example 33, 2-(Propan-2-yloxy)-5-{2-[(3,4,5-trimethoxyphenyl)amino]pyrimidin-4-yl}benzonitrile], the results for the IC50 at IKKε and at TBK1 were below 5 nM and below 10 nM, respectively.

Take `COc1cc(Nc2nccc(-c3ccc(OC4CCN(C(=O)OC(C)(C)C)CC4)c(C#N)c3)n2)ccc1N1CCOCC1` [Example 263, tert-butyl 4-[2-cyano-4-(2-{[3-methoxy-4-(morpholin-4-yl)phenyl]amino}pyrimidin-4-yl)phenoxy]piperidine-1-carboxylate]: at TBK1, the IC50 was 100 to 500 nM.

Take `N#Cc1cccc(-c2ccnc(Nc3ccc(OCCN4CCOCC4)cc3)n2)c1` [Example 283, 3-[2-({4-[2-(Morpholin-4-yl)ethoxy]phenyl}amino)pyrimidin-4-yl]benzonitrile]: the half-inhibitory concentration (IC50) on TBK1 lay within 10 to 100 nM.

Take `N#Cc1cccc(-c2ccnc(Nc3ccc(Cl)cc3)n2)c1` [compound 340, 3-{2-[(4-Chlorophenyl)amino]pyrimidin-4-yl}benzonitrile]: the IC50 on TBK1 is 100 to 500 nM.

These data come from patent US20150352108A1, “AMINO-PYRIMIDINE COMPOUNDS AS INHIBITORS OF TBK1 AND/OR IKK EPSILON” (Alzheimer's Institute of America, priority 2009, published 2015).
